This passage reports kinematic viscosity results from patent publication US20160280631A1, “ESTER COMPOUNDS INCLUDING TRIESTERS HAVING TERMINAL VICINAL ACYL GROUPS” (BIOSYNTHETIC TECHNOLOGIES, LLC., priority 2015, published 2016).

A short description of this series: kinematic viscosity (ASTM Method D445-97). It is filed as physicochemical. As to conditions: measured at 100° C. How it is done: Except as otherwise described, pour point is measured by ASTM Method D97-96a, cloud point is measured by ASTM Method D2500, viscosity/kinematic viscosity is measured by ASTM Method D445-97, viscosity index is measured by ASTM Method D2270-93 (Reapproved 1998), specific gravity is measured by ASTM Method D4052, flash point is measured by ASTM Method D92, evaporative loss is measured by ASTM Method D5800, vapor pressure is measured by ASTM Method D5191, and acute aqueous toxicity is measured by Organization of Economic Cooperation and Development (OECD) 203.

As for `CCCCC(CC)COC(=O)CCCCCCCCC(COC(C)=O)OC(C)=O` (centres unmarked) [Example 4], the kinematic viscosity result is given as “less than 10 cSt”.

Regarding `CCCCC(CC)COC(=O)CCCCCCCCC(COC(=O)C(C)C)OC(=O)C(C)C` (centres unmarked) [Example 5], the kinematic viscosity entry is listed as “less than 10 cSt”.
